Test results published in patent publication US20260347338A1, “PYRIMIDINE/PYRIDINE DERIVATIVES OR SALTS THEREOF AND PHARMACEUTICAL COMPOSITIONS COMPRISING THE SAME” (YUHAN CORPORATION, priority 2023, published 2026).
Where a name gives a salt, the structure may show the parent alone.

Target: T1, human recombinant HPK1 (Homo sapiens, UniProt Q92918)
T1 construct: purchased BPS Bioscience
Test: Inhibitory activity against human recombinant HPK1 (TR-FRET)
Assay type: biochemical
Conditions: ULight-p70S6K peptide, ATP at Km, room temperature, 1 hour, 0.32 to 1000 nM compound
In short: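 Recombinant human HPK1 with ULight-p70S6K peptide and ATP at Km, 1 h at room temperature in HEPES pH 7.4 buffer with Mg2+, Mn2+, EGTA, DTT; compounds 0.32–1000 nM final. EDTA stop, Eu-anti-phosphopeptide TR-FRET read (665 nm); IC50 from % inhibition versus DMSO, binned A–D at 10, 50, 100 nM.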

T1 sequence (Q92918 whole entry): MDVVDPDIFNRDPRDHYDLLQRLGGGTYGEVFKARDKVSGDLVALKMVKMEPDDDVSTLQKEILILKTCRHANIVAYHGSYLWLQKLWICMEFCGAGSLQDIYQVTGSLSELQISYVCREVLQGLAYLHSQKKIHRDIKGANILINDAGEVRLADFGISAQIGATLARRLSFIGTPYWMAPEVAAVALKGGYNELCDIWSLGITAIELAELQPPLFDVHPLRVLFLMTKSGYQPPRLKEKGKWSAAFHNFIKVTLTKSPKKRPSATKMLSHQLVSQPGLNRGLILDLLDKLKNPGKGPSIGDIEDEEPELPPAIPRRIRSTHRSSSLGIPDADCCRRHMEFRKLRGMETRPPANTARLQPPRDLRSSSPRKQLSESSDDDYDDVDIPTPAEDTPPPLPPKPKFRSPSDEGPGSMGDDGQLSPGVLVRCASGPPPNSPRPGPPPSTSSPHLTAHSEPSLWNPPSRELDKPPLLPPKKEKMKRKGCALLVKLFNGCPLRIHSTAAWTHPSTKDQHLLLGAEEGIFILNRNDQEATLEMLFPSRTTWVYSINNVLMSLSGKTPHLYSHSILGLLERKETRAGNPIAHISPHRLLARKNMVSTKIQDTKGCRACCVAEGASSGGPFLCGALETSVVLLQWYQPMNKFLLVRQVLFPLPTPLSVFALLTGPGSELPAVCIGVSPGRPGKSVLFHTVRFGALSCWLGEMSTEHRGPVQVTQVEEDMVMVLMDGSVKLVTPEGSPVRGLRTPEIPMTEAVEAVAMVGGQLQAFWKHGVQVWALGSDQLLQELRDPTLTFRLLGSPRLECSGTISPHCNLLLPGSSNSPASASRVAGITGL

| SMILES | IC50 [nM] |
| --- | --- |
| COc1cccc(F)c1-c1nc(Nc2cc(N3CCC[C@H](O)C3)c(-c3cnn(CC(F)F)c3)cn2)ccc1C(N)=O [Example 160, 6-((5-(1-(2,2-difluoroethyl)-1H-pyrazol-4-yl)-4-((S)-3-hydroxypiperidin-1-yl)pyridin-2-yl)amino)-2-(2-fluoro-6-methoxyphenyl)nicotinamide] | ≤ 10 |
| COc1cc(CO)cc(F)c1-c1nccc(Nc2cc(N3CCC[C@H](O)C3)c(-c3cnn(C4CCOCC4)c3)cn2)n1 [Example 161, (S)-1-(2-((2-(2-fluoro-4-(hydroxymethyl)-6-methoxyphenyl)pyrimidin-4-yl)amino)-5-(1-(tetrahydro-2H-pyran-4-yl)-1H-pyrazol-4-yl)pyridin-4-yl)piperidin-3-ol] | ≤ 10 |
| COc1cccc(F)c1-c1nccc(Nc2cc(N3CCC[C@H](N)C3)c(-c3cnn(CCN4CCOCC4)c3)cn2)n1 [Example 162, (S)-N-(4-(3-aminopiperidin-1-yl)-5-(1-(2-morpholinoethyl)-1H-pyrazol-4-yl)pyridin-2-yl)-2-(2-fluoro-6-methoxyphenyl)pyrimidin-4-amine hydrochloride] | ≤ 10 |
| COc1cccc(F)c1-c1nccc(Nc2cc(N3CCC[C@H](N)C3)c(-c3cnn(CCN4CCCC4)c3)cn2)n1 [Example 163, (S)-N-(4-(3-aminopiperidin-1-yl)-5-(1-(2-(pyrrolidin-1-yl)ethyl)-1H-pyrazol-4-yl)pyridin-2-yl)-2-(2-fluoro-6-methoxyphenyl)pyrimidin-4-amine hydrochloride] | ≤ 10 |
| COc1cccc(F)c1-c1nccc(Nc2cc(N3CCC[C@H](N)C3)c(C#Cc3cnn(C(F)F)c3)cn2)n1 [Example 164, (S)-N-(4-(3-aminopiperidin-1-yl)-5-((1-(difluoromethyl)-1H-pyrazol-4-yl)ethynyl)pyridin-2-yl)-2-(2-fluoro-6-methoxyphenyl)pyrimidin-4-amine hydrochloride] | ≤ 10 |
| COc1cccc(F)c1-c1nccc(Nc2cc(N3CCC[C@H](N)C3)c(C#Cc3cnn(CC(F)F)c3)cn2)n1 [Example 165, (S)-N-(4-(3-aminopiperidin-1-yl)-5-((1-(2,2-difluoroethyl)-1H-pyrazol-4-yl)ethynyl)pyridin-2-yl)-2-(2-fluoro-6-methoxyphenyl)pyrimidin-4-amine hydrochloride] | ≤ 10 |
| COc1cccc(F)c1-c1nccc(Nc2cc(N3CCC[C@H](N)C3)c(C#Cc3cnn(CC(F)(F)F)c3)cn2)n1 [Example 166, (S)-N-(4-(3-aminopiperidin-1-yl)-5-((1-(2,2,2-trifluoroethyl)-1H-pyrazol-4-yl)ethynyl)pyridin-2-yl)-2-(2-fluoro-6-methoxyphenyl)pyrimidin-4-amine hydrochloride] | ≤ 10 |
| COc1cccc(F)c1-c1nccc(Nc2cc(N3CCC[C@H](N)C3)c(-c3cnn(CCC(N)=O)c3)cn2)n1 [Example 167, (S)-3-(4-(4-(3-aminopiperidin-1-yl)-6-((2-(2-fluoro-6-methoxyphenyl)pyrimidin-4-yl)amino)pyridin-3-yl)-1H-pyrazol-1-yl)propanamide hydrochloride] | ≤ 10 |
| COc1cccc(F)c1-c1nccc(Nc2cc(N3CCC[C@H](N)C3)c(-c3cnn(C4CNC4)c3)cn2)n1 [Example 168, (S)-N-(4-(3-aminopiperidin-1-yl)-5-(1-(azetidin-3-yl)-1H-pyrazol-4-yl)pyridin-2-yl)-2-(2-fluoro-6-methoxyphenyl)pyrimidin-4-amine hydrochloride] | ≤ 10 |
| COc1cccc(F)c1-c1nc(Nc2cc(N3CCC[C@H](N)C3)c(-c3cnn(CC(F)F)c3)cn2)ccc1N [Example 169, N^2-(4-((S)-3-aminopiperidin-1-yl)-5-(1-(2,2-difluoroethyl)-1H-pyrazol-4-yl)pyridin-2-yl)-6-(2-fluoro-6-methoxyphenyl)pyridin-2,5-diamine hydrochloride] | ≤ 10 |
| COc1cccc(F)c1-c1nc(Nc2cc(N3CCC[C@H](N)C3)c(-c3cnn(CC(F)(F)F)c3)cn2)ccc1N [Example 170, N^2-(4-((S)-3-aminopiperidin-1-yl)-5-(1-(2,2,2-trifluoroethyl)-1H-pyrazol-4-yl)pyridin-2-yl)-6-(2-fluoro-6-methoxyphenyl)pyridin-2,5-diamine hydrochloride] | ≤ 10 |

More lines, now with the values ahead:

| IC50 [nM] | SMILES |
| --- | --- |
| ≤ 10 | COc1cccc(F)c1-c1nc(Nc2cc(N3CCC[C@H](N)C3)c(-c3cnn(C(F)F)c3)cn2)ccc1[N+](=O)[O-] [Example 146, 4-((S)-3-aminopiperidin-1-yl)-5-(1-(difluoromethyl)-1H-pyrazol-4-yl)-N-(6-(2-fluoro-6-methoxyphenyl)-5-nitropyridin-2-yl)pyridin-2-amine hydrochloride] |
| ≤ 10 | COc1cccc(F)c1-c1nccc(Nc2cc(N3CCC(CCN(C)C)CC3)c(-c3cnn(C(F)F)c3)cn2)n1 [Example 147, N-(5-(1-(difluoromethyl)-1H-pyrazol-4-yl)-4-(4-(2-(dimethylamino)ethyl)piperidin-1-yl)pyridin-2-yl)-2-(2-fluoro-6-methoxyphenyl)pyrimidin-4-amine] |
| ≤ 10 | COc1cccc(F)c1-c1nccc(Nc2cc(N3CCC(CCN(C)C)CC3)c(-c3cnn(CC(F)(F)F)c3)cn2)n1 [Example 148, N-(4-(4-(2-(dimethylamino)ethyl)piperidin-1-yl)-5-(1-(2,2,2-trifluoroethyl)-1H-pyrazol-4-yl)pyridin-2-yl)-2-(2-fluoro-6-methoxyphenyl)pyrimidin-4-amine] |
| ≤ 10 | COc1cccc(F)c1-c1nccc(Nc2cc(N3CCC(CCN(C)C)CC3)c(-c3ccc(N4CCOCC4)nc3)cn2)n1 [Example 149, 4-(4-(2-(dimethylamino)ethyl)piperidin-1-yl)-N-(2-(2-fluoro-6-methoxyphenyl)pyrimidin-4-yl)-6′-morpholino-[3,3′-bipyridin]-6-amine] |
| ≤ 10 | COc1cccc(F)c1-c1nc(Nc2cc(N3CCC[C@H](O)C3)c(-c3cnn(C(F)F)c3)cn2)ccc1N [Example 150, (3S)-1-(2-((5-amino-6-(2-fluoro-6-methoxyphenyl)pyridin-2-yl)amino)-5-(1-(difluoromethyl)-1H-pyrazol-4-yl)pyridin-4-yl)piperidin-3-ol] |
| ≤ 10 | COc1cccc(F)c1-c1nc(Nc2cc(N3CCC[C@H](N)C3)c(-c3cnn(C(F)F)c3)cn2)ccc1N [Example 151, N^2-(4-((S)-3-aminopiperidin-1-yl)-5-(1-(difluoromethyl)-1H-pyrazol-4-yl)pyridin-2-yl)-6-(2-fluoro-6-methoxyphenyl)pyridin-2,5-diamine hydrochloride] |
| ≤ 10 | COc1cccc(F)c1-c1nc(Nc2cc(N3CCC[C@H](N)C3)c(-c3cnn(CC(F)F)c3)cn2)ccc1[N+](=O)[O-] [Example 152, 4-((S)-3-aminopiperidin-1-yl)-5-(1-(2,2-difluoroethyl)-1H-pyrazol-4-yl)-N-(6-(2-fluoro-6-methoxyphenyl)-5-nitropyridin-2-yl)pyridin-2-amine hydrochloride] |
| ≤ 10 | COc1cccc(F)c1-c1nc(Nc2cc(N3CCC[C@H](N)C3)c(-c3cnn(CC(F)(F)F)c3)cn2)ccc1[N+](=O)[O-] [Example 153, 4-((S)-3-aminopiperidin-1-yl)-N-(6-(2-fluoro-6-methoxyphenyl)-5-nitropyridin-2-yl)-5-(1-(2,2,2-trifluoroethyl)-1H-pyrazol-4-yl)pyridin-2-amine hydrochloride] |
| ≤ 10 | COc1cccc(F)c1-c1nc(Nc2cc(N3CCC[C@H](N)C3)c(-c3cnn(C(F)(F)F)c3)cn2)ccc1[N+](=O)[O-] [Example 154, 4-((S)-3-aminopiperidin-1-yl)-N-(6-(2-fluoro-6-methoxyphenyl)-5-nitropyridin-2-yl)-5-(1-(trifluoromethyl)-1H-pyrazol-4-yl)pyridin-2-amine hydrochloride] |
| ≤ 10 | COc1cccc(F)c1-c1nc(Nc2cc(N3CCC[C@H](N)C3)c(C#CC3CCOCC3)cn2)ccc1[N+](=O)[O-] [Example 155, 4-((S)-3-aminopiperidin-1-yl)-N-(6-(2-fluoro-6-methoxyphenyl)-5-nitropyridin-2-yl)-5-((tetrahydro-2H-pyran-4-yl)ethynyl)pyridin-2-amine hydrochloride] |
| ≤ 10 | COc1cccc(F)c1-c1nc(Nc2cc(N3CCC[C@H](N)C3)c(C#Cc3cnn(C(F)(F)F)c3)cn2)ccc1[N+](=O)[O-] [Example 156, 4-((S)-3-aminopiperidin-1-yl)-N-(6-(2-fluoro-6-methoxyphenyl)-5-nitropyridin-2-yl)-5-((1-(trifluoromethyl)-1H-pyrazol-4-yl)ethynyl)pyridin-2-amine hydrochloride] |
| ≤ 10 | COc1cc(F)cc(F)c1-c1nccc(Nc2cc(N3CCC[C@H](N)C3)c(-c3cnn(C(F)(F)F)c3)cn2)n1 [Example 157, (S)-N-(4-(3-aminopiperidin-1-yl)-5-(1-(trifluoromethyl)-1H-pyrazol-4-yl)pyridin-2-yl)-2-(2,4-difluoro-6-methoxyphenyl)pyrimidin-4-amine hydrochloride] |
| ≤ 10 | COc1cc(F)cc(F)c1-c1nccc(Nc2cc(N3CCC[C@H](N)C3)c(-c3cnn(CC(F)F)c3)cn2)n1 [Example 158, (S)-N-(4-(3-aminopiperidin-1-yl)-5-(1-(2,2-difluoroethyl)-1H-pyrazol-4-yl)pyridin-2-yl)-2-(2,4-difluoro-6-methoxyphenyl)pyrimidin-4-amine hydrochloride] |
| ≤ 10 | COc1cc(F)cc(F)c1-c1nccc(Nc2cc(N3CCC[C@H](N)C3)c(C#Cc3cnn(C(F)(F)F)c3)cn2)n1 [Example 159, (S)-N-(4-(3-aminopiperidin-1-yl)-5-((1-(trifluoromethyl)-1H-pyrazol-4-yl)ethynyl)pyridin-2-yl)-2-(2,4-difluoro-6-methoxyphenyl)pyrimidin-4-amine hydrochloride] |
